Measured values published in patent US7713960B2, “Inhibition of the Raf/Mek/P-Erk pathway for treating cancer” (University of South Florida, priority 2005, dated 2010).
Counter-ions that a name gives are not always drawn.

Columns and labels:
MDA-MB-231 cells [1] = test: Anchorage-independent growth (soft agar assay), MDA-MB-231; type: cell-based, human
Description: (§1) Soft Agar Assay—Anchorage independent growth assays were performed as previously described (Lerner et al., 1997). Briefly, agar was diluted to 0.3% in propagation media containing 20,000 cells and either vehicle or ARA-211 and 1 ml of cell/agar mixture plated on top of 2 ml of a 0.6% layer of agar in medium alone. Cells were grown for three to four weeks at 37° C., 10% Co2 and were fed weekly with 100 μl per well of media/treatment. Quantification of colonies was done using a GS-700 scanning densitometer.

MDA-MB-231 cells [2] = test: Nude mouse xenograft model, MDA-MB-231 (mammary fat pads); type: in vivo, nude mice; settings: MDA-MB-231 xenograft; i.p. 200 mpk/day
Source text: Anti-tumor activity in nude mouse xenograft model—Female athymic nude (nu/nu) mice, 5-6 weeks old, were purchased from Charles River (Wilmington, Mass.) and allowed to acclimate in the animal facility for one week. After harvesting, A-549, SNB-19, ACHN, and HCT-116 cells were, resuspended in sterile PBS, and injected s.c. into the right and left flanks (10×10^6 cells per flank) of the mice as previously described (Sun et al., 2005). For MDA-MB-231, cells were harvested and resuspended in PBS (10×10^6 cells per 50 μl) and an equal volume of Matrigel (BD Biosciences, San Jose, Calif.). 100 μl of MDA-MB-231 cells in PBS/Matrigel were injected s.c. into the mammary fat pads between the 2nd and 3rd nipples on each side of the mice. Once the tumors reached approximately 200-300 mm^3 the mice were randomized and treated i.p. with 0.1 ml vehicle (PBS) or ARA-211. Each treatment group consisted of five mice (2 tumors per mouse, a total of 10 tumors). The tumor volumes were determined by measuring the length (l) and width (w) and calculating the volume (V=w^2l/2). Statistical significance between the control and treated animals was determined using a student's t test.

Mek-1 = target: T1, Mek-1 (Homo sapiens, UniProt Q02750); test: In vitro kinase assay, Mek-1 immunoprecipitated from MDA-MB-231 cells; type: biochemical; settings: immunoprecipitated kinase treated in vitro, 10 μM
T1 construct: c-Raf-1 and Mek-1, immunoprecipitated from MDA-MB-231 cells; endogenous in cells; host or cells: MDA-MB-231
T1 sequence (Q02750 whole entry): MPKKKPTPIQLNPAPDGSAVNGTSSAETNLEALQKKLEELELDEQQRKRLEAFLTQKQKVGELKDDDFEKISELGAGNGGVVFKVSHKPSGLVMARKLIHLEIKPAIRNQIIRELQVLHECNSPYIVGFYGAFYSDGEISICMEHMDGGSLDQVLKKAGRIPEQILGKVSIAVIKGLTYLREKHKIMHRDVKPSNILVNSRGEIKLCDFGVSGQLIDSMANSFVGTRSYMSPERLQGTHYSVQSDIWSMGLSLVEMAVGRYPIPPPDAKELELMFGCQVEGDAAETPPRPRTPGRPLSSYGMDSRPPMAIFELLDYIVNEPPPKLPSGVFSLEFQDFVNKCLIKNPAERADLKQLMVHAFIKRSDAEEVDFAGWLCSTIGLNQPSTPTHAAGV
Description: In Vitro Kinase Assays—MDA-MB-231 cells (2×10^6) were lysed for 30 minutes at 4° C. in RIPA-150 buffer (10 mM Tris pH 7.5, 150 mM NaCl, 10% glycerol, 5 mM EDTA, 1% Triton X-100, 0.1% SDS, 100 μM sodium orthovanadate, 1 μM aprotinin, 10 μM leupeptin, 10 μM antipain). Cell debris was pelleted at 13000 rpm for 15 minutes at 4° C. and the lysate was rocked overnight with 10 μg of either c-Raf or MEK antibodies (Santa Cruz Biotechnologies, Santa Cruz, Calif.). 25 μl of protein A/G PLUS agarose (Santa Cruz Biotechnology) was then added and rocked for 4 hours at 4° C. Samples were spun at 2000 rpm for 5 minutes to collect the agarose beads, which were then washed four times with lysis buffer. On the final wash each pellet was divided into 5. […]

SF-539 cells = test: Total cellular cAMP measurement, SF-539; type: cell-based, human
Description: Total cellular cAMP measurement—The measurement of total cellular cAMP was done using a cAMP Biotrak ™ Enzymeimmunoassay (EIA) system (Amersham Biosciences, Piscataway, N.J.) according to the manufacturer's protocol. Briefly, 2000 cells were plated into each well of a 96 well plate. The next day cells were treated with increasing concentrations of ARA-211 or with vehicle for one hour. Alternatively, MDA-MB-231 cells were pre-treated with antagonists to the α1 (Prazosin, Sigma), α2 (Yohimbine, Sigma), β1 (Metoprolol, Sigma), and β2 (ICI 118.551, Sigma) adrenergic receptors at 100 nM for 15 minutes followed by treatment with 10 μM ARA-211 for 45 minutes. Cells were then lysed directly in the wells using the supplied lysis buffer. The lysate was transferred to a 96-well cAMP ELISA plate, and results were quantified using a Wallac Victor 2 plate reader.

P-Akt = P-Akt levels (Western blotting), MDA-MB-231; type: cell-based, human
Description: Western Blotting—Treated cell samples were lysed in 30 mM HEPES, 10 mM NaCl, 5 mM MgCl2, 25 mM NaF, 1 mM EGTA, 1% Triton-X-100, 10% Glycerol, 2 mM Sodium orthovanidate, 10 μg/mL aprotinin, 10 μg/mL soybean trypsin inhibitor, 25 μg/mL leupeptin, 2 mM phenylmethylsulfonylfluoride (PMSF), 6.4 mg/mL p-nitrophenylphosphate for 30 minutes at 4° C., and proteins run on SDS-PAGE gels then transferred to nitrocellulose membranes. Membranes were blocked in either 5% milk in PBS, pH 7.4, containing 0.1% Tween-20 (PBS-T) or 1% BSA in TBS, pH 7.5, containing 0.1% Tween-20 (TBS-T). Phospho-STAT3 and phospho-AKT antibodies were diluted in 1% BSA in TBS-T while phospho-c-Raf, phospho-Mek, and phospho-p44/p42 MAPK antibodies (Cell Signaling) were diluted in 5% milk in PBS-T for either 1 hour at room temperature or overnight at 4° C. HRP-conjugated secondary antibodies (Jackson ImmunoResearch, West Grove, Pa.) were diluted in 5% milk in PBS-T or TBS-T at a 1:1000 dilution for one hour at room temperature. Western blots results were visualized using enhanced chemiluminescence. Stripping of the membranes for reblotting was done using stripping buffer (62.5 mM Tris pH 7.6, 2% SDS, 0.7% 2-mercaptoethanol) at 50° C. for 30 minutes.

ACHN cells = test: Anchorage-independent growth (soft agar assay), ACHN; type: cell-based, human
Description: as §1

CC(C)(C)NCC(O)c1ccc(O)c(CO)n1 (stereo not drawn) [ARA-211, 2-hydroxymethyl-3-hydroxy-6-(1-hydroxy-2-tert-butylaminoethyl) pyridine, dihydrochloride]
Anchorage Independent Growth (% Inhibition) (MDA-MB-231 cells [1]): 82.7 ± 7.9% | growth of tumors (MDA-MB-231 cells [2]): caused tumor regression | in vitro Mek-1 kinase activity (Mek-1): did not inhibit | cAMP (Fold Induction) (SF-539 cells): 13.1 ± 3.0 Fold | P-Akt levels (P-Akt): not | Anchorage Independent Growth (% Inhibition) (ACHN cells): 97.9 ± 1.2%
